In data set [1] the test system is A. amphitrite cyprids. The experiment in a line: Substrate exploration analysis: SIPC deposition by cyprids (anti-SIPC Western blot on wells). Format: in vivo, Amphibalanus amphitrite. Particulars: for effect on deposition of SIPC protein on the surface of the bioassay plates: concentrations at the EC50 values, p > 0.05; for effect on deposition of SIPC protein on the surface of the bioassay plates / effect on adjusted integrated density of anti-SIPC immunoreactive signals: 24 h; for effect on adjusted integrated density of anti-SIPC immunoreactive signals: indicated concentrations, unpaired two-tailed t-test with Welch's correction. The protocol:
To test the substrate exploratory behaviour of A. amphitrite cyprids in the presence of selected metabolites, settlement bioassays were conducted by adding 10 cyprids into individual wells of a 24-well polystyrene sterile microplate (Orange Scientific, Braine l’Alleud, Belgium) containing 2 mL of ASW (25‰). These experiments were repeated twice with four replicates per experiment. Plates were covered and sealed with Parafilm® to avoid evaporation and incubated at 25 °C away from any light source for 24 h. Then, the 2 mL of ASW was aspirated from each well and all settled and non-settled cyprids were counted and removed. Wells were then blocked by incubation with 5% BSA in TBST (25 mM Tris-HCl, pH 7.5, 150 mM NaCl, 0.1% Tween 20) for 1 h at room temperature. Wells were then incubated for 1 h at room temperature with the mouse anti-SIPC monoclonal antibody at 1:100 dilution of the cloned cell line culture supernatant in TBST with 5% BSA, washed with TBST (3 × 5 min) and incubated with an HRP-conjugated anti-mouse antibody (1:1000, Cell Signaling Technology, Danvers, MA, USA) for 1 h at room temperature. Wells were then washed with TBST (3 × 5 min) and immunostaining was detected using the 20 × LumiGLO® chemiluminescence kit (Cell Signaling Technology, Danvers, MA, USA) in a Bio-Rad ChemiDoc XRS + Gel Photo Documentation System. To measure the relative intensity of immunoreactive spots on this format of Western blots, images were analyzed with ImageJ 1.52k (NIH, Bethesda, MD, USA), and the adjusted integrated density of the signals was calculated using the formula: Adjusted integrated density (IntDen) = IntDen of experimental region of interest (ROI)—(mean of background ROI × area of experimental ROI). Data were exported and statistically analyzed with GraphPad Prism v.6 using unpaired, two-tailed t-tests at p = 0.05, with Welch’s correction.
Background: In western blotting, separated proteins are transferred to a membrane and probed.

Data set [2] relates to A. salina nauplii. Description: Artemia salina toxicity assay. Format: in vivo. Conditions: 24 and 48 h. The procedure: The short-term toxicity assay with A. salina nauplii was used to determine the toxicity of secondary metabolites. Hatching of A. salina nauplii was carried out in ASW (35‰) using 0.5 g of cysts incubated in 500 mL seawater at a temperature of 25 ± 1 °C and lateral illumination (1000 Lux). All cysts were kept in continuous suspension with aeration and 24 h later hatched larvae (instar I) were harvested. Toxicity assays were carried out in three independent experiments in 24-well plates with four replicates of each tested concentration. Ten nauplii per well were transferred with a Pasteur pipette into the 24-well plates and each well was filled with 2 mL of ASW and 50 μL of various concentrations of the tested compounds in methanol. Control treatments received 50 μL of methanol. Plates were incubated in the dark at 25 ± 1 °C for 48 h. Mortality was assessed by recording the number of individuals with no movement of their appendages within 10 seconds and is expressed as the percentage of the total number of assessed individuals for each concentration.
For EC50 or IC50 (the concentration that results in 50% stimulation or inhibition relative to the control) calculations in GraphPad Prism v.6, all data were fitted to the curve according to the following models for normalized response: Y = 100/(1 + 10^((X − LogIC50))) or Y = 100/(1 + 10^((LogEC50 − X))) depending on the trend of the curve.

On to `CC(C)[C@@H]1CC=C[C@H]2[C@H]3[C@](C)(CC[C@]12CBr)[C@@H](Br)CC[C@@]3(C)O` [Bromosphaerol, reference compound], for which the “effect on deposition of SIPC by the cyprids relative to control (ASW)” value in data set [1] (10 μM) is recorded as “did not affect deposition of SIPC”. Moreover, in data set [1], the “effect on deposition of SIPC protein on the surface of the bioassay plates” value was “no statistically significant effect” and the “effect on adjusted integrated density of anti-SIPC immunoreactive signals” value was “none of the two tested compounds (p > 0.05) affected”. Further, the “toxicity against A. salina nauplii (in words)” value in data set [2] is on record as “did not show any toxicity”.
Consider `CC1=C2CC[C@@](C)(Cl)[C@@H](Br)C[C@]2(C)[C@@H](C)[C@@H](Br)[C@@H]1O` [Compound 9, perforenol], for which, in data set [1], the “effect on deposition of SIPC protein on the surface of the bioassay plates” value is “no statistically significant effect” and the “effect on adjusted integrated density of anti-SIPC immunoreactive signals” value is on record as “none of the two tested compounds (p > 0.05) affected”.

These data come from paper PMC6891695, “Evaluation of Antifouling Potential and Ecotoxicity of Secondary Metabolites Derived from Red Algae of the Genus Laurencia” (Marine Drugs, 2019).
